# Data taken from patent publication US11390580B2, “Anti-fungals targeting the synthesis of fungal shingolipids” (THE RESEARCH FOUNDATION FOR THE STATE UNIVERSITY OF NEW YORK, priority 2014, dated 2022).
# “And” between values parts separate entries of the source, which are not always exact repeats. Equal entries are not always repeated. Where two headings read alike, the source gives them in different places.
# Tests used:
# Cryptococcus neoformans = assay: In vitro susceptibility testing (MIC); format: cell-based
# Pneumocystis jiroveci = assay: In vitro testing by ATP content (luciferin-luciferase); settings: for inhibition at 0.1 µg/mL / inhibition at 1 µg/mL / inhibition at 10 µg/mL / inhibition at 100 µg/mL: read-out: percentage inhibition of ATP
# [1] = test system: synthesis of GlcCer in mammalian (J774) cells; assay: In vivo labeling with 3H palmitate, TLC of GlcCer; format: cell-based, murine; settings: 3H palmitate labeling
smiles,measurement,setting,value
"Cc1ccccc1C(=O)NN=Cc1ccc(O)c(Br)c1 [BHBM, N′-(3-bromo-4-hydroxybenzylidene)-2-methylbenzohydrazide]",in vitro activity,Cryptococcus neoformans,good in vitro activity
same,MIC range,"Cryptococcus neoformans; 4 MDP Lab strains, clinical isolates resistant to fluconazole",1 to 2 µg/mL
same,MIC range,"Cryptococcus neoformans; 8 MDP Lab strains, clinical isolates sensitive to fluconazole",0.5 to 2 µg/mL
same,MIC range,Cryptococcus neoformans; 13 Fungus Testing Lab strains,0.25 to 8 µg/mL
same,MFC,"Cryptococcus neoformans; Cryptococcus neoformans, read-out: MFC (minimum fungicidal concentration)",4 µg/mL
same,BHBM 72 Hr 50%,"Cryptococcus neoformans; MIC, FTL strains",8 and >16 and 16
same,sensitivity of Fluconazole-resistant strains,Cryptococcus neoformans; all Fluconazole-resistant C. neoformans strains,sensitive
same,IC50,"Pneumocystis jiroveci; 24 h, read-out: IC50, P. jiroveci",0.912 µg/mL
same,inhibition at 0.1 µg/mL,Pneumocystis jiroveci; 24 h,16.1%
same,inhibition at 1 µg/mL,Pneumocystis jiroveci; 24 h,51.5%
same,inhibition at 10 µg/mL,Pneumocystis jiroveci; 24 h,97%
same,inhibition at 100 µg/mL,Pneumocystis jiroveci; 24 h,98.9%
same,IC50,"Pneumocystis jiroveci; 48 h, read-out: IC50, P. jiroveci",0.159 µg/mL
same,inhibition at 0.1 µg/mL,Pneumocystis jiroveci; 48 h,26.2%
same,inhibition at 1 µg/mL,Pneumocystis jiroveci; 48 h,92.6%
same,inhibition at 10 µg/mL,Pneumocystis jiroveci; 48 h,97.8%
same,inhibition at 100 µg/mL,Pneumocystis jiroveci; 48 h,98.6%
same,IC50,"Pneumocystis jiroveci; 72 h, read-out: IC50, P. jiroveci",0.074 µg/mL
same,inhibition at 0.1 µg/mL,Pneumocystis jiroveci; 72 h,39.1%
same,inhibition at 1 µg/mL,Pneumocystis jiroveci; 72 h,87.8%
same,inhibition at 10 µg/mL,Pneumocystis jiroveci; 72 h,94.8%
same,inhibition at 100 µg/mL,Pneumocystis jiroveci; 72 h,98.1%
same,IC50,"Pneumocystis jiroveci; 96 h, read-out: IC50, P. jiroveci",0.072 µg/mL
same,inhibition at 0.1 µg/mL,Pneumocystis jiroveci; 96 h,46.2%
same,inhibition at 1 µg/mL,Pneumocystis jiroveci; 96 h,77%
same,inhibition at 10 µg/mL,Pneumocystis jiroveci; 96 h,90.1%
same,inhibition at 100 µg/mL,Pneumocystis jiroveci; 96 h,98.9%
same,IC50,"Pneumocystis jiroveci; read-out: activity class by IC50, P. jiroveci",0.011 to 0.099 µg/mL
same,inhibition of the synthesis of GlcCer,[1],no significant changes
same,inhibition of the synthesis of GlcCer,[1]; listed as #5271226,not in mammalian (J774) cells
